From US10945433B2, “Method for treating coffee rust, citrus black spot, citrus scab and banana black sigatoka diseases” (Bayer CropScience Aktiengesellschaft, priority 2015, dated 2021)

Tests used:
Hemileia vastatrix = assay: Control of rust (Hemileia vastatrix) on coffee crop, field trials; assay type: in vivo; conditions: 50 g a.i./ha, coffee leaves, foliar sprays, vs untreated
Protocol: Four field trials were implemented in Brazil in 2013 and 2014 to evaluate the performance of compounds against Hemileia vastatrix on Coffee.
The trials were carried out according to standard experimental practice to protect the canopy from the rust, responsible to defoliation and then yield losses. A typical fungicide formulation containing 100 g of compound per liter was applied in consecutive foliar sprays at 3 occasions every 30 to 50 days in most of the trials. Spray volumes vary from 400 L to 500 L/Ha.
Assessments were realized on leaves—Data are expressed in % efficacy against rust on leaves compared to untreated plants.

Elsinoe fawcettii = assay: Control of scab (Elsinoe fawcettii) on citrus crop, field trials; assay type: in vivo; conditions: 3000 L/Ha
From the text: (§1) Five field trials were implemented in South Africa, Brazil and Japan in 2013 and 2014 to evaluate the performance of compounds against two main diseases having high effect on marketable yield: Elsinoe fawcettii and Guignardia citricarpa are hosted by many citrus species. Both are able to infest fruits and both are quarantine pathogens limiting the exportation outside of the growing countries. The protection against these two pathogens gives a clear advantage for farmers to be present on the export market.
(§2) The trials were carried out according to standard experimental practice to protect the canopy including fruits in each country. A typical fungicide formulation containing 100 g of compound per liter was applied in consecutive foliar sprays at 5 to 6 occasions every month to control black spot and at 1 to 3 occasions every 14 days to control Scab infections. Spray volumes vary from 2000 L to 3000 L/Ha.

Guignardia citricarpa = assay: Control of black spot (Guignardia citricarpa) on citrus crop, field trials; assay type: in vivo; conditions: 2000 to 3000 L/Ha
From the text: as §1, §2

Mycosphaerella fijiensis = assay: Control of Black Sigatoka on banana crop, field trials; assay type: in vivo; conditions: for Number healthy Leaves 2DAT7: Trial A, untreated 8.5; for Number healthy Leaves 2DAT7 / Number healthy Leaves 25DAT13: per banana plant at end of trial; for Number healthy Leaves 25DAT13: Trial B, untreated 8.7
Protocol: Two field trials were implemented in 2013 in Costa Rica and Philippines to evaluate the performance of compounds against Mycosphaerella fijiensis infection on Banana.
A typical fungicide formulation containing 100 g of compound per liter was applied every 7 to 12 days in consecutive foliar sprays. The trials were carried out according to standard experimental practice with spay adjuvant and mineral oil used in tank mix as it is usual on banana plantation in each country.
Data are expressed in Number of healthy leaves present at the end of the trial on each Banana plant (more leaves present mean better quantity and quality of harvest).

[1] = log P determination by HPLC on reversed-phase column (EEC Directive 79/831 Annex V.A8); assay type: physicochemical
Protocol: In table 1, the log P values were determined in accordance with EEC Directive 79/831 Annex V.A8 by HPLC (High Performance Liquid Chromatography) on a reversed-phase column (C 18), using the method described below:
Temperature: 40° C.; Mobile phases: 0.1% aqueous formic acid and acetonitrile; linear gradient from 10% acetonitrile to 90% acetonitrile.
Calibration was carried out using unbranched alkan-2-ones (comprising 3 to 16 carbon atoms) with known log P values (determination of the log P values by the retention times using linear interpolation between two successive alkanones). lambda-max-values were determined using UV-spectra from 200 nm to 400 nm and the peak values of the chromatographic signals.

With CC(C)c1ccc(Cl)cc1CN(C(=O)c1c(C(F)F)nn(C)c1F)C1CC1 [Compound A5, N-(5-chloro-2-isopropylbenzyl)-N-cyclopropyl-3-(difluoromethyl)-5-fluoro-1-methyl-1H-pyrazole-4-carboxamide] the “% Efficacy (Abbott)” value (Hemileia vastatrix; Trial A) was 84%, the “% Efficacy (Abbott)” value (Hemileia vastatrix; Trial B) was 61% and the “% Efficacy (Abbott)” value (Hemileia vastatrix; Trial C) was 95%. The “% Efficacy (Abbott)” value (Hemileia vastatrix; Trial D) was 73%, the “% Efficacy (Abbott)” value (Elsinoe fawcettii; Trial A, 2.5 g a.i./100 L) was 96% and the “% Efficacy (Abbott)” value (Elsinoe fawcettii; Trial A, 5 g a.i./100 L) was 95%. For the same molecule, the “% Efficacy (Abbott)” value (Elsinoe fawcettii; Trial B, 2.5 g a.i./100 L) was 92%, the “% Efficacy (Abbott)” value (Elsinoe fawcettii; Trial B, 5 g a.i./100 L) was 70% and the “% Efficacy (Abbott)” value (Guignardia citricarpa; Trial A, 10 g a.i./100 L) was 73%. The “% Efficacy (Abbott)” value (Guignardia citricarpa; Trial A, 15 g a.i./100 L) was 70%, the “% Efficacy (Abbott)” value (Guignardia citricarpa; Trial B, 10 g a.i./100 L) was 72% and the “% Efficacy (Abbott)” value (Guignardia citricarpa; Trial B, 15 g a.i./100 L) was 83%. For the same molecule, the “% Efficacy (Abbott)” value (Guignardia citricarpa; Trial C, 10 g a.i./100 L) was 91.3%, the “% Efficacy (Abbott)” value (Guignardia citricarpa; Trial C, 15 g a.i./100 L) was 93.9% and the “average gain in leaves per plant” value (Mycosphaerella fijiensis; 6.25 g ai/ha, banana, Black Sigatoka) was “about +3 leaves per plant”. The “Number healthy Leaves 2DAT7” value (Mycosphaerella fijiensis; 6.25 g a.i./ha) was 11.5, the “Number healthy Leaves 2DAT7” value (Mycosphaerella fijiensis; 12.5 g a.i./ha) was 12.2 and the “Number healthy Leaves 2DAT7” value (Mycosphaerella fijiensis; 25 g a.i./ha) was 12. For the same molecule, the “Number healthy Leaves 25DAT13” value (Mycosphaerella fijiensis; 6.25 g a.i./ha) was 13.4, the “Number healthy Leaves 25DAT13” value (Mycosphaerella fijiensis; 12.5 g a.i./ha) was 14.4 and the “Number healthy Leaves 25DAT13” value (Mycosphaerella fijiensis; 25 g a.i./ha) was 16.2.

In the case of O=C(Nc1ccccc1-c1ccc(Cl)cc1)c1cccnc1Cl [Boscalid, reference compound], the “Number healthy Leaves 25DAT13” value (Mycosphaerella fijiensis; 150 g a.i./ha) is reported as 13.1.

Work on CCc1ccc(F)cc1CN(C(=O)c1c(C(F)F)nn(C)c1F)C1CC1 [Compound A6, N-cyclopropyl-3-(difluoromethyl)-N-(2-ethyl-5-fluorobenzyl)-5-fluoro-1-methyl-1H-pyrazole-4-carboxamide] yielded a chromatographic logP ([1]; reversed-phase C18 HPLC column, HPLC, reversed-phase C 18, 40° C., 0.1% aqueous formic acid and acetonitrile gradient) of 3.14.

With “N-cyclopropyl-3-(difluoromethyl)-5-fluoro-N-(2-isopropylbenzyl)-1-methyl-1H-pyrazole-4-carbothio-amide [Compound A20]” the logP [1] was 4.36.
